In a melting point compilation (Tetko et al.; mined from patent text by program, amines drawn as free bases though some values may be those of a salt):

Row | SMILES | melting point
1 | Cn1ccnc1Sc1ccc(Nc2c(C#N)cnc3cc(/C=C/CCO)ccc23)cc1Cl | 205 to 210 °C
2 | CSc1cccc(Cc2sc(NC(C)=O)nc2CO)c1 | 140 to 142 °C
3 | COCc1cccc(OCCc2cnc(S)[nH]c2=O)c1 | 117 to 119 °C
4 | Cc1nc(C(N)=O)c2n1-c1ccc(Cl)cc1C(c1ccccc1)=NC2 | 335 to 340 °C
5 | COc1ccc2c(=O)[nH]nc(-c3ccccc3)c2c1 | 230 to 235 °C
6 | CCOC(=O)c1c(C(F)(F)F)nc(C(F)(F)Cl)c(C(=O)OC)c1NC(C)C | 43.5 to 45 °C
7 | Cc1cc(-n2ccnc2)c2cccc(OCc3c(Cl)ccc(S(=O)(=O)N4CCC[C@H]4C(=O)N(C)CCN(C)CCCCO)c3Cl)c2n1 | 84 °C
8 | Cc1cccc(NC(=O)N=C2CCCN2C)c1 | 137 to 142 °C
9 | O=C1CCCOc2ccc(O)cc21 | 116 to 120 °C
10 | COP(=S)(OC)SCc1nc2sccn2c(=O)c1Cl | 125 to 130 °C
11 | O=C(CCNc1c(C(=O)O)[nH]c2cc(Cl)ccc12)c1ccccc1 | 250 to 255 °C
12 | O=C(O)c1cc2cc([N+](=O)[O-])ccc2[nH]c1=O | > 310 °C
13 | COc1ccc(N2C(=O)c3ccc(Cl)cc3C2CC(=O)N2CCC3(CC2)OCCO3)cc1 (centres undefined) | 156 to 157 °C
14 | CC(N)C(Cc1ccc(OCc2ccccc2)cc1)CC(O)c1ccccc1F (centres undefined) | 162 to 163 °C
15 | NS(=O)(=O)Oc1ccccc1F | 63 to 64 °C
16 | O=C(c1sccc1-n1cccc1)N1CCCCC1 | 126 °C
17 | CCc1noc(-c2ncn(-c3cccc(O)c3)c2COC)n1 | 98 to 99 °C
18 | COC(=O)c1cccc(-c2nc(COc3ccc(C=O)cc3OC)c(C)o2)c1 | 168 to 169 °C
19 | C=CCN1C(=O)C=C(NC2c3cc4c(cc3C(c3cc(OC)c(O)c(OC)c3)C3C(=O)OCC23)OCO4)C1=O (centres undefined) | 180 to 183 °C
20 | N#Cc1c(OCC(F)(F)F)nc(CO)nc1N1CCc2ccccc2CC1 | 106 to 110 °C

Row | SMILES | melting point
21 | COc1cc(OC)nc(Sc2cnn(C)c2NS(=O)(=O)CC#N)n1 | 147 to 148 °C
22 | Cc1ccc2c(c1)S(=O)(=O)N=C(NC(C)C)N2 | 266 to 268 °C
23 | COc1ccc2c(c1)C(C)(C)Oc1c-2ccc(O)c1C(C)=O | 103 to 104 °C
24 | CCOC(=O)c1cnc2c(SC(=O)N3CCN(c4ccccc4OC)CC3)cccn2c1=O | 151 to 153 °C
25 | CCCCCCCCCCC#Cc1ccc2c(c1)c(C=O)cn2S(=O)(=O)c1ccc(C)cc1 | 84 to 86 °C
26 | NS(=O)(=O)c1ccccc1Cc1nnc(S)s1 | 173 to 197 °C
27 | CCOC(=O)c1ccccc1Nc1ccccc1O | 105 to 106 °C
28 | NCC(O)c1cc(Cl)cc(Cl)c1 (centres undefined) | 66 °C
29 | Nc1ccc(S(=O)(=O)Nc2cccc(OP(N)(N)=O)c2)cc1 | 185 to 186 °C
30 | Cc1nc(CO)ccc1CO | 94 to 96 °C
31 | c1ccc(COc2ccc(-c3cscn3)cc2)cc1 | 109 to 110 °C
32 | CCOC(=O)c1ccc(NCC=Cc2ccccc2)cc1 | 123 to 131 °C
33 | Nc1nc(NCCc2ccc(Cl)cc2)sc1C(=O)c1ccccc1[N+](=O)[O-] | 117 to 120 °C
34 | Nc1cccc2c1C1CC3(CCN1C2=O)OCCO3 (centres undefined) | 76 °C
35 | CSc1ncc(Sc2nc(C)c(CC(=O)O)s2)c(C(=O)O)n1 | 238 to 239 °C
36 | Clc1ccc(OC2CCN(CCc3c[nH]c4ccccc34)CC2)cc1 | 132 to 133 °C
37 | Cc1cccc2c1N(CC(=O)c1cccc([N+](=O)[O-])c1)C(=O)C(NC(=O)Nc1cccc(-c3nnn[nH]3)c1)N=C2c1ccccc1F (centres undefined) | 194 to 198 °C
38 | Cc1cc2c(s1)Oc1cccc(C)c1NC2=O | 198 to 200 °C
39 | CC(C)(C)NC(=O)NN1CC=CCC1 | 156 °C
40 | Cc1cncc(CN2CCC(=C3c4ccc(Cl)cc4CCc4cccnc43)CC2)c1 | 58 to 61 °C

Row | SMILES | melting point
41 | COc1cccc(C(Cn2ccnc2)=[N+](C)[O-])c1 | 87 to 90 °C
42 | CCOC(c1ccccc1)(c1ccccc1)c1ncn(S(=O)(=O)N(C)C)c1C | 150 °C
43 | Cc1cccc(-c2[nH]c(C(C)C)nc2-c2cccc(-c3ccc(C(=O)NC4CCOCC4)cc3)c2)n1 | 140 °C
44 | O=C(Nc1ccc(OCCCN2CCc3ccccc3C2)cc1)c1cccc2c(=O)c3ccccc3[nH]c12 | 182 °C
45 | CC(=O)N1CCc2cc(O)c(C(F)(F)F)cc21 | 244 to 247 °C
46 | CCCCNC(=O)COC1C(O)C(CO)OC(Oc2ccc(N)cc2)C1O (centres undefined) | 135 °C
47 | OCc1ccc2cc(-c3nnc(CSCCOc4ccccc4)o3)ccc2c1 | 132 to 133 °C
48 | COc1ccc(CSCC(NC(=O)c2ccccc2)C(=O)NC(C)(C)c2ccccc2)cc1 (centres undefined) | 189 °C
49 | NC(=O)N(O)Cc1ccc(Oc2ccccc2)s1 | 114 to 116 °C
50 | CCCCCCN(Cc1ccccc1)Cc1nc(-c2ccc(-c3ccccc3)cc2)c[nH]1 | 120 to 122 °C
51 | Fc1cc(F)cc(-c2nc(-c3ccccn3)no2)c1 | 115 to 119 °C
52 | Cc1nc(-c2ccc(C#N)cc2)sc1C(=O)N1CC(O)O[C@@](Cn2cncn2)(c2ccc(F)cc2F)[C@H]1C (some centres undefined) | 225 to 228 °C
53 | CC(CCOS(N)(=O)=O)Oc1ccccc1 (centres undefined) | 76 to 77 °C
54 | Nc1nn2cc(-c3ccc([N+](=O)[O-])o3)nc2s1 | 257 to 258 °C
55 | CCOC(=O)c1c(OC(=O)CCl)c2ccccc2c2nc3ccccc3nc12 | 208 to 209 °C
56 | Cc1ccc(C)n1-c1cc(Br)c2ccc3[nH]c(=O)c(=O)[nH]c3c2c1 | > 270 °C
57 | O=C(NCc1cccc(-c2nc(=O)c3ccccc3s2)n1)c1ccccc1 | 214 to 215 °C
58 | Cc1ccc([N+](=O)[O-])c(C(=O)Nc2ccc(-n3nc(C(F)(F)F)cc3C(F)(F)F)cc2)c1 | 188 to 189 °C
59 | CCCC1=C(C#N)C(c2ccccc2OC)c2c[nH]nc2N1 (centres undefined) | 203 °C

More lines, now with the values ahead:

Row | melting point | SMILES
60 | 188 °C | O=C(O)c1ccccc1Oc1ccc2c(c1)CC[C@H](CNC[C@H](O)COc1ccccc1)O2
61 | 173 to 175 °C | O=C(Nc1ccccc1)c1ccc(F)c(NC(=S)Nc2cc(Cl)cc(Cl)c2)c1
62 | 145 to 147 °C | CCCNCC(O)COc1ccc2c(=O)cc(-c3ccccc3)oc2c1 (centres undefined)
63 | 238 to 240 °C | Cc1cccc(Cl)c1C(=O)N[C@@H](Cc1ccc(-c2c(C)n(C)c(=O)n(C)c2=O)cc1)C(=O)O
64 | 173 to 175 °C | O=C(c1ccc(Cl)cc1)c1c(N2C(=O)c3ccccc3C2=O)sc(Br)c1CN(C1CCCCC1)C1CCCCC1
65 | 233 to 234 °C | O=[N+]([O-])c1ccc(S(=O)(=O)n2c3cc(O)c(O)cc3c3ccc(O)c(O)c32)cc1
66 | 191 to 194 °C | CCc1nc2c(C)cc(C)nc2n1Cc1ccc2oc(-c3cccc(F)c3C(=O)O)c(Br)c2c1
67 | 63.5 to 66 °C | CCOC(=O)/C=C/c1ccc(OCCC(C)(C)O)cc1Oc1ncc(C(F)(F)F)cc1Cl
68 | 181 to 183 °C | Fc1cc(F)c(COc2cccnc2NC(=S)Nc2ccc(Cl)cc2)c(F)c1
69 | 182 to 184 °C | COc1ccc2nc(Cl)cc(CC#N)c2c1
70 | 114 to 115 °C | CC(=O)c1cnc(Br)c(C)c1
71 | 114 to 117 °C | COCCOc1ccc2cc3ccccc3cc2c1C=O
72 | 150 to 151 °C | NC(=S)c1ccc(CC(NC(=O)OCc2ccccc2)C(=O)NCC(=O)NCCC(=O)OCc2ccccc2)cc1 (racemic)
73 | 132 °C | CCN(CC)C(=O)C=Cc1cc(OC)c(OC)c(OC)c1
74 | 55 to 56 °C | CCN(CC)C(=O)c1cccc(OC)c1-c1ccccc1
75 | 163 to 166 °C | CC1(C)CC(OC(=O)c2ccc(CN(O)Cc3ccc(C(=O)OC4CC(C)(C)N(OC5CCCCC5)C(C)(C)C4)cc3)cc2)CC(C)(C)N1OC1CCCCC1
76 | 85 to 102 °C | CC(=O)SCC(CC(C)C)C(=O)NCCCCCCCC(=O)N[C@@H](CCCNC(=N)N)C(=O)O (some centres undefined)
77 | 224 to 227 °C | N#Cc1cc(F)c(N2CCN(Cc3cnc4c(c3)NC(=O)[C@@H]3CCCN43)CC2)cc1F
78 | 275 to 280 °C | COc1cc2cc3c(Nc4ccc(Sc5nccn5C)c(Cl)c4)c(C#N)cnc3cc2cc1OCCCl
79 | 142 to 143 °C | CC(=O)SCC(Cc1ccccc1)C(=O)NCc1ccc(C(=O)OCc2ccccc2)cc1 (centres undefined)

Row | melting point | SMILES
80 | 107 °C | CCOc1ccc([N+](=O)[O-])c(NCCN2CCOCC2)c1
81 | 92 to 93 °C | COc1ncc([N+](=O)[O-])c(OC)n1
82 | 117 to 118 °C | CN(C)CC1CN(c2ccccc2)NC1=N (centres undefined)
83 | 193 to 195 °C | COc1ccc(N2CCN(C=C3C(=O)Nc4cc(OC)c(OC)cc43)CC2)cc1OC
84 | 129 to 130 °C | CC(=O)OC1CCC2(C)C(CCC3=C4C(=O)CC(C(C)CCC=C(C)C)C4(C)CCC32)C1 (centres undefined)
85 | 140 to 142 °C | COc1ccc(-c2nc(-c3ccc(F)cc3)sc2-c2ccc(OC)cc2)cc1
86 | 153 to 157 °C | CCc1cc2c(=O)c(C(=O)O)cn(Cc3ccc(-c4ccccc4-c4nnn[nH]4)cc3)c2s1
87 | 109 °C | CCOC(=O)C(=O)Nc1cc(C)c(C)cc1[N+](=O)[O-]
88 | 250 °C | O=C(O)CC(C(=O)O)c1ccn2c(=O)c(C(=O)O)ccc2c1 (centres undefined)
89 | 162 to 163 °C | Cc1sc(-n2nc(C(=O)O)nc2CCl)c(C(=O)c2ccccc2)c1C
90 | 165 to 168 °C | O=C1Nc2ccc(-c3cccc(Cl)c3)cc2C2(CCCCC2)O1
91 | 182 to 183 °C | CC(=O)OCC(=O)NCc1nc(-c2csc(N=C(N)N)n2)cs1
92 | 162 to 165 °C | CN(C)c1ccc(NC(=O)N(C[C@H]2CC[C@H](CN(C(=O)Nc3ccc(N(C)C)cc3)C3CCCC3)CC2)C2CCCC2)cc1
93 | 148 to 150 °C | NC(=O)c1cccc(CSCCNC(=O)c2c(Cl)cccc2Cl)c1
94 | 199 to 204 °C | CN(C)C(=O)Nc1ccc(N2CCOCC2)cc1
95 | 276 to 278 °C | COC(=O)c1cc(=O)c2oc3ccc(Cl)cc3c(=O)c2n1C
96 | 204 °C | CC(Cl)C(=O)Nc1ccccc1C(=O)CC(=O)Nc1nccs1 (centres undefined)
97 | 106 to 108 °C | Cc1ccc(S(=O)(=O)OCC(=O)C(=NO)C(=O)OC(C)(C)C)cc1
98 | 244 to 245 °C | Cc1ccc(-c2nc(C)c(-c3ccnc(Nc4ccc(N5CCOCC5)cc4)n3)s2)cn1
99 | 212 to 214 °C | CCCCn1c(=O)c2cc(C(=O)O)cn2c2ccccc21
